# Data: patent US20230165824A1, “METHODS, SYSTEMS AND COMPOSITIONS FOR INHIBITION OF CELLULAR DYSFUNCTION AND CELL DEATH WITH DEUTERATED PUFAs” (BioJiva LLC, priority 2021, published 2023)
# Like-named read-outs stand apart in the source and are kept apart here.
# What was measured:
# [1] = tested on: murine fibroblasts; details: for % Cell Survival: murine fibroblasts treated with 50 micromolar erastin, plate dilution assay; for Level of protection against LPO induced cell death relative to 13,13-D2-arachidonic acid: murine fibroblasts, 50 micromolar erastin
# Method: In this example, two different pools of cells were each seeded in 48-well plates and treated with 50 micromolar of erastin.
# Afterwards, cell viability was measured by plate dilution assay to distinguish between cells that are alive and those that are dead on a Petri dish.
# [2] = INAD children, 3.9 grams D2-LA ethyl ester daily for 1 month then 2.9 grams
# Method: In this example, children suffering from INAD were treated with a daily dose of 3.9 grams of D2-LA ethyl ester followed by 2.9 grams of D2-LA ethyl ester. Given the age and weight of these children, such is assumed to be substantially equivalent to a loading dose of from about 7 and about 12 grams per day for an adult patient for an adult patient and a maintenance dose which is less than the loading dose again for an adult patient.
# This example also determines the concentration of D2-AA in RBCs. Specifically, a cohort of 14 children was provided with a daily dose of 3.9 grams of D2-LA ethyl ester for 1 month followed by 2.9 grams of D2-LA ethyl ester for the remaining six-month period. Blood samples were taken at 3 months for all but 1 child and at 6 months for all children. The concentration of D2-AA in RBCs was measured.
# [3] = Determination of D2-AA and D2-LA concentrations in CSF and RBCs in a single patient (Example 1)
# Text: This example determines the relative concentration of D2-AA in the CSF and in RBCs in order to determine a correlation between these two concentrations. Specifically, a patient was continuously provided with a daily dose of 9 grams of D2-LA ethyl ester (which is 8.64 grams of active discounting for impurities and removal of the ethyl ester) over about a six-month period. Periodic samples of blood and CSF were taken and the concentration of both D2-LA and D-2AA in both the RBCs and the CSF were measured. In all cases, the D2-AA was obtained by deacylation of the ethyl ester of linoleic acid in the gastrointestinal tract followed by conversion of D2-LA in vivo to D2-AA.
# [4] = 6 months; 15 INAD infants treated
# [5] = ALS patients on D2-LA; based on total AA and D2-AA; 'when calculated'
# Method: (§1) Patients suffering from ALS were treated with D2-LA over a period of time. […] Some patients were provided 2 grams of 11,11-D-2 LA per day as opposed to the loading dose of 9 grams per day.
# (§2) Functional scores for each of the patients (ALSFRS-R results) at the end of therapy were compared to the natural history scores at the start of therapy.
# [6] = tested on: patients with ALS; assay: ALSFRS-R rate of functional decline in ALS patients on primer/maintenance dosing regimen (Example 3); type: in vivo, human; details: for Annualized average reduction in the rate of disease progression: 9 grams then 5 grams daily, vs natural history
# Method: As set forth in the examples below, the rate of functional decline is predicated on measuring an individual's, or a cohort's, average for the natural history of disease progression. Next, the individual or cohort average for the functional decline is determined at a period of time such as at 3, 6 or 12 months after initiation of therapy. The rate of decline based on the average of the natural history of the cohort is set as the denominator. The numerator is set as the delta between the rate of the natural history of disease progression and the rate of functional decline after a set period of treatment per this invention. The resulting fraction is the multiplied by 100 to give a percent change. The following exemplifies this analysis.
# This example illustrates the reduction in the rate of disease progression in patients with ALS treated by the dosing methods described herein, this example evidences that the amount of oxidized PUFA products has been reduced to a level that allows the otherwise impaired regulatory enzymes are able to neutralize substantially all of these oxidized products now generated. Specifically, a cohort of 3 patients was placed on a dosing regimen consisting of a first dosing component (primer dose) of about 9 grams of D2-LA ethyl ester daily for a period of at least 30 days and then all three patients were transitioned to a second dosing component (maintenance dose) of 5 grams of D2-LA ethyl ester.
# The functionality of each of the patients was evaluated periodically using the ALSFRS-R protocol. The patients continued on the dosing regimen for a period of 6 months (patient A) or 1 year (patient B) or for 9 months (patient C). Patient C died at the end of 9 months and their death was attributed to factors other than ALS cardiomyopathy. Before initiation of therapy, the natural history of each patient in the cohort was determined and an average annual rate of functional decline was measured at 21.
# The annualized progression of the disease, as measured by an average annual rate of functional decline for all three patients starting at the time that dosing began and terminating at the end of the dosing regimen and then annualized as described above, was measured as 2.1. Using the formula described above, one obtains the following: […]
# [7] = tested on: infants suffering from INAD; assay: Open label treatment study of INAD patients (Example 6); type: in vivo, human
# Method: Novel and conventional developmental neurologic assessment scales appropriate to the disease and which measure vital function in different parts of the brain were applied at base line and at 6 monthly intervals and the health and well-being of the infants were assessed continuously for 1-2 years, including any aspiration pneumonia, hospitalizations and deaths.
# [8] = tested on: patients suffering from ALS; assay: ALSFRS-R rate of functional decline in ALS patients treated with D2-LA (Comparative Example A); type: in vivo, human
# Method: as §1, §2
# [9] = 3 months, single patient, daily 9 grams D2-LA ethyl ester
# [10] = 6 months, single patient, daily 9 grams D2-LA ethyl ester
compound,measurement,setting,value
[2H]C([2H])(/C=C\CCCCC)/C=C\C([2H])([2H])/C=C\C([2H])([2H])/C=C\CCCC(=O)O,% Cell Survival,[1],70.2%
same,"Level of protection against LPO induced cell death relative to 13,13-D2-arachidonic acid",[1],approximately twice the level of protection
same,"Level of protection against LPO induced cell death relative to 13,13-D2-arachidonic acid",[1]; listed as D6-AA,about 2
"[2H]C([2H])(/C=C\C/C=C\C/C=C\CCCC(=O)O)/C=C\CCCCC [D2-AA, 13,13-D2-Arachidonic Acid]",Average concentration of D2-AA in the RBCs,[2]; 3 months,12%
same,Average concentration of D2-AA in the RBCs,[2]; 6 months,16.7%
same,% Cell Survival,[1],33.2%
same,"Amount of D2-AA in RBCs at 1 month, estimated by linear extrapolation","[3]; 1 month, extrapolated from 3 and 6 month values (FIG. 1)",about 3%
same,Concentration of D2-AA in CSF,"[3]; 1 month, single patient, daily 9 grams D2-LA ethyl ester, based on arachidonic acid + deuterated arachidonic acid",8%
same,Concentration of D2-AA in RBCs,[3]; [9],11.8%
same,Concentration of D2-AA in RBCs,[3]; [10],16.7%
same,Average plasma level of D2-AA,[4],17.4%
same,"Amount of D2-AA in the patients' RBCs, average",[5],about 3%
"[2H]C([2H])(/C=C\CCCCC)/C=C\CCCCCCCC(=O)OCC [D2-LA ethyl ester, 11,11-D2-linoleic acid ethyl ester]",Functional Rate Decline During Therapy,"[6]; Patient A, 6 months on regimen, NH rate of decline −16",−3
same,Functional Rate Decline During Therapy,"[6]; Patient B, 1 year on regimen, NH rate of decline −31",−2
same,Functional Rate Decline During Therapy,"[6]; Patient C, 9 months on regimen, NH rate of decline −16",−1.3
same,Annualized average reduction in the rate of disease progression,[6]; cohort of 3 ALS patients,90%
same,"Average annual rate of functional decline (ALSFRS-R) during dosing, annualized","[6]; cohort of 3 ALS patients, about 9 grams daily at least 30 days then 5 grams, natural history 21",2.1
"[2H]C([2H])(/C=C\CCCCC)/C=C\CCCCCCCC(=O)O [D2-LA, 11,11-D2-Linoleic Acid]",Deaths due to other causes,[7]; 19 INAD infants treated,2
same,Non-fatal pneumonia,[7]; 19 INAD infants treated,2
same,Serious events,[7]; 19 INAD infants treated at least 1 year and up to 2.5 years,4
same,No. of Aspirations resulting in pneumonias,"[7]; 19 INAD infants treated at least 1 year and up to 2.5 years, natural history 10/37",2/19
same,Percent mortality,"[7]; 19 INAD infants treated, mortality from pneumonias, natural history 21.6%",0%
same,Fatal Pneumonias,"[7]; 19 INAD infants treated, natural history 8",0
same,Percent Pneumonias,"[7]; 19 INAD infants treated, natural history 27.0%",10.5%
same,Deaths due to aspiration pneumonia,[7]; 19 subjects over 2.5 years treatment,no deaths due to aspiration pneumonia
same,Annualized rate of decline (ALSFRS-R) during treatment,"[8]; different dosing amounts and periods of D2-LA (some 2 grams per day), pre-treatment −14.2+/−4.4",−7.6+/−1.4 per year
same,Reduction in rate of decline vs pre-treatment,"[8]; p=0.07, paired t-test for within-subject change in slope",46%
same,Concentration of D2-LA in CSF,"[3]; 1 month, single patient, daily dose of 9 grams of D2-LA ethyl ester",19.8%
same,Concentration of D2-LA in RBCs,[3]; [9],34.7%
same,Concentration of D2-LA in RBCs,[3]; [10],34.5%
same,Annualized average reduction in the rate of disease progression,[6]; cohort of 3 ALS patients,~90%
